Data published in US20160338351A1, “(S)-ABSCISIC ACID DERIVATIVES FOR ENHANCED GRAPE COLORATION” (Valent BioSciences Corporation, priority 2015, published 2016).
Structures can show the parent of a compound that is named as a salt.

Tests used:
Type in all cases: in vivo, Vitis vinifera
[1] = tested on: Crimson Seedless grape clusters; test: Field study, Example 1: visual rating of red grape coloration, % of berries with marketable color; conditions: for activity relative to S-ABA for enhancing grape coloration: from % marketable color data, 40 ppm vs 400 ppm S-ABA
Protocol: (§1) A field study was conducted in California to compare the efficacy of S-ABA to 3′-methyl-(S)-ABA in promoting red grape coloration. S-ABA and 3′-methyl-(S)-ABA were formulated as aqueous solutions of the corresponding potassium salt to the desired concentrations with the final pHs being between 6.5 and 7.2. Individual Crimson Seedless grape clusters were selected and tagged, with 20 tagged clusters per treatment. The treatments were applied as cluster-directed sprays using a trigger sprayer at 15 to 20 mL per cluster to ensured good coverage of the grapes. Application of 15 to 20 milliliters per cluster simulates application of about 109 gallons per acre directed at the approximately 40 clusters per vine in a vineyard with 518 vines per acre. Based on these estimates, Applicant determined the approximate grams per acre. The equation is as follows: 20 ml/cluster×40 cluster/vine=800 ml/vine×518 vine/acre=(414,400 ml/acre)/(1000 ml/liter)=414 liters/acre. An estimation of grams per acre was made by multiplying the mg per cluster with 20,720 clusters/acre (40 clusters/vine×518 vines/acre=20,720 clusters/acre).
(§2) Periodically after the treatments, the grape clusters were evaluated for color development by visual ratings over a six-week period. The coloration was graded on a 1 to 8 grading scale, where a rating of 1 has very little or no red color and a rating of 8 has a deep or dark red color. The percentages of berries that reached marketable red coloration for each cluster were averaged and recorded for each treatment. Additionally, representative berries from each treatment group were harvested about four weeks after treatment and analyzed for anthocyanin content.

[2] = tested on: Crimson Seedless grape clusters; test: Field study, Example 1: anthocyanin content of berries harvested about four weeks after treatment; conditions: for Total Anthocyanin Content: berries harvested about four weeks after treatment
Protocol: as §1, §2

Crimson Seedless grapes = test: Trial, Example 2: visual color rating of grape clusters on a 1 to 8 scale; set-up: key to Color Ratings: 1 = little/no red color, 8 = deep/dark red color; conditions: for Color Ratings: applied day 0 and day 11, 1 to 8 grading scale
Protocol: Another trial was conducted in California on Crimson Seedless grapes to compare the efficacy of S-ABA, 3′-methyl-(S)-ABA and 3′-propargyl-(S)-ABA in promoting coloration. All three compounds were formulated as aqueous solutions of the corresponding potassium salt to the desired concentrations, with the final pHs being between 6.5 and 7.2. Individual Crimson Seedless grape clusters were selected and tagged, with 20 tagged clusters per treatment. The solutions were applied as cluster-directed sprays using a trigger sprayer at 15 to 20 milliliters per cluster which ensured good coverage of the grapes. The treatments were applied on day 0 and day 11 of the trial. Periodically during the trial, the grape clusters were evaluated for color development by visual ratings over a six-week period and the coloration was graded on a 1 to 8 grading scale, where a rating of 1 has very little or no red color and a rating of 8 has a deep or dark red color.

## CC1=C(C)[C@](O)(/C=C/C(C)=C\C(=O)O)C(C)(C)CC1=O [3′-methyl-(S)-ABA, K^+ salt, (2Z,4E)-5-((S)-1-hydroxy-2,3,6,6-tetramethyl-4-oxocyclohex-2-en-1-yl)-3-methylpenta-2,4-dienoic acid]
[1]; 0.6 to 0.8 mg per cluster (40 ppm, 15 to 20 mL)
  coloration effect compared with 6 to 8 mg per cluster (400 ppm) of S-ABA: even more efficacious
[1]; 20 ppm, 0.3-0.4 mg/cluster, 6-8 grams/acre, 7 DAT
  Coloring Ratings, % of the berries with marketable color: 34%
[1]; 20 ppm, 0.3-0.4 mg/cluster, 6-8 grams/acre, 14 DAT
  Coloring Ratings, % of the berries with marketable color: 67%
[1]; 20 ppm, 0.3-0.4 mg/cluster, 6-8 grams/acre, 27 DAT
  Coloring Ratings, % of the berries with marketable color: 79%
[1]; 20 ppm, 0.3-0.4 mg/cluster, 6-8 grams/acre, 33 DAT
  Coloring Ratings, % of the berries with marketable color: 85%
[1]; 20 ppm, 0.3-0.4 mg/cluster, 6-8 grams/acre, 43 DAT
  Coloring Ratings, % of the berries with marketable color: 89%
[1]; 40 ppm, 0.6-0.8 mg/cluster, 12-16 grams/acre, 7 DAT
  Coloring Ratings, % of the berries with marketable color: 52%
[1]; 40 ppm, 0.6-0.8 mg/cluster, 12-16 grams/acre, 14 DAT
  Coloring Ratings, % of the berries with marketable color: 83%
[1]; 40 ppm, 0.6-0.8 mg/cluster, 12-16 grams/acre, 27 DAT
  Coloring Ratings, % of the berries with marketable color: 92%
[1]; 40 ppm, 0.6-0.8 mg/cluster, 12-16 grams/acre, 33 DAT
  Coloring Ratings, % of the berries with marketable color: 95%
[1]; 40 ppm, 0.6-0.8 mg/cluster, 12-16 grams/acre, 43 DAT
  Coloring Ratings, % of the berries with marketable color: 97%
[1]; 200 ppm, 3-4 mg/cluster, 60-80 grams/acre, 7 DAT
  Coloring Ratings, % of the berries with marketable color: 72%
[1]; 200 ppm, 3-4 mg/cluster, 60-80 grams/acre, 14 DAT
  Coloring Ratings, % of the berries with marketable color: 89%
[1]; 200 ppm, 3-4 mg/cluster, 60-80 grams/acre, 27 DAT
  Coloring Ratings, % of the berries with marketable color: 95%
[1]; 200 ppm, 3-4 mg/cluster, 60-80 grams/acre, 33 DAT
  Coloring Ratings, % of the berries with marketable color: 95%
[1]; 200 ppm, 3-4 mg/cluster, 60-80 grams/acre, 43 DAT
  Coloring Ratings, % of the berries with marketable color: 100%
[1]; 400 ppm, 6-8 mg/cluster, 120-160 grams/acre, 7 DAT
  Coloring Ratings, % of the berries with marketable color: 76%
[1]; 400 ppm, 6-8 mg/cluster, 120-160 grams/acre, 14 DAT
  Coloring Ratings, % of the berries with marketable color: 98%
[1]; 400 ppm, 6-8 mg/cluster, 120-160 grams/acre, 27 DAT
  Coloring Ratings, % of the berries with marketable color: 99%
[1]; 400 ppm, 6-8 mg/cluster, 120-160 grams/acre, 33 DAT
  Coloring Ratings, % of the berries with marketable color: 99%
[1]; 400 ppm, 6-8 mg/cluster, 120-160 grams/acre, 43 DAT
  Coloring Ratings, % of the berries with marketable color: 99%
[1]; 400 ppm, 6 to 8 mg per cluster, 15 to 20 mL, in two weeks
  marketable coloration: ~90%
[1]
  activity relative to S-ABA for enhancing grape coloration: approximately 10 times
[1]; listed as 3′-methyl-(S)-abscisic acid
  activity relative to S-ABA for enhancing grape coloration: ten times as effective as S-ABA
[2]; 0.3-0.4 mg/cluster (20 ppm, 15-20 mL)
  Total Anthocyanin Content: 68 mg/L
[2]; 0.6-0.8 mg/cluster (40 ppm, 15-20 mL)
  Total Anthocyanin Content: 78 mg/L
[2]; 3-4 mg/cluster (200 ppm, 15-20 mL)
  Total Anthocyanin Content: 181 mg/L
[2]; 6-8 mg/cluster (400 ppm, 15-20 mL)
  Total Anthocyanin Content: 247 mg/L
[2]; from anthocyanin analysis of Table 2
  activity relative to S-ABA in promoting Crimson Seedless grape coloration: approximately 10 times
[2]; rate of S-ABA needed to achieve the same effect
  calculated relative potency versus S-ABA: 8.4 times
Crimson Seedless grapes; 4 ppm, 0.06-0.08 mg/cluster, 1.2-1.6 g/acre, 3 DAT
  Color Ratings: 1
Crimson Seedless grapes; 4 ppm, 0.06-0.08 mg/cluster, 1.2-1.6 g/acre, 10 DAT
  Color Ratings: 1.6
Crimson Seedless grapes; 4 ppm, 0.06-0.08 mg/cluster, 1.2-1.6 g/acre, 14 DAT
  Color Ratings: 1.9
Crimson Seedless grapes; 4 ppm, 0.06-0.08 mg/cluster, 1.2-1.6 g/acre, 21 DAT
  Color Ratings: 2.4
Crimson Seedless grapes; 4 ppm, 0.06-0.08 mg/cluster, 1.2-1.6 g/acre, 31 DAT
  Color Ratings: 2.7
Crimson Seedless grapes; 4 ppm, 0.06-0.08 mg/cluster, 1.2-1.6 g/acre, 41 DAT
  Color Ratings: 2.8
Crimson Seedless grapes; 20 ppm, 6-8 g/acre, 3 DAT
  Color Ratings: 1.3
Crimson Seedless grapes; 20 ppm, 6-8 g/acre, 10 DAT
  Color Ratings: 1.7
Crimson Seedless grapes; 20 ppm, 6-8 g/acre, 14 DAT
  Color Ratings: 2.3
Crimson Seedless grapes; 20 ppm, 6-8 g/acre, 21 DAT
  Color Ratings: 2.9
Crimson Seedless grapes; 20 ppm, 6-8 g/acre, 31 DAT
  Color Ratings: 3.5
Crimson Seedless grapes; 20 ppm, 6-8 g/acre, 41 DAT
  Color Ratings: 3.5
Crimson Seedless grapes; 40 ppm, 0.6-0.8 mg/cluster, 12-16 g/acre, 3 DAT
  Color Ratings: 1.1
Crimson Seedless grapes; 40 ppm, 0.6-0.8 mg/cluster, 12-16 g/acre, 10 DAT
  Color Ratings: 1.3
Crimson Seedless grapes; 40 ppm, 0.6-0.8 mg/cluster, 12-16 g/acre, 14 DAT
  Color Ratings: 2.7
Crimson Seedless grapes; 40 ppm, 0.6-0.8 mg/cluster, 12-16 g/acre, 21 DAT
  Color Ratings: 3.9
Crimson Seedless grapes; 40 ppm, 0.6-0.8 mg/cluster, 12-16 g/acre, 31 DAT
  Color Ratings: 4.7
Crimson Seedless grapes; 40 ppm, 0.6-0.8 mg/cluster, 12-16 g/acre, 41 DAT (end of six-week evaluation)
  Color Ratings: 5.5
Crimson Seedless grapes; Crimson Seedless grapes
  potency in promoting red color development compared with another compound: more effective than S-ABA
Crimson Seedless grapes; six-week evaluation period
  red color development in comparison with the untreated control: dose-dependent accelerated red color development
